We go through two molecules from patent publication US20110092544A1, “FUNGICIDAL PYRIDINES” (E.I. DU PONT DE nemours and company, priority 2008, published 2011).

One data set concerns Botrytis cinerea. Briefly: Test F: tomato botrytis, preventive spray on tomato seedlings, visual disease rating. The class given is in vivo. The following applies: Botrytis cinerea, 120 h. The gist of the method:
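Tomato seedlings sprayed to run-off with compound suspended in acetone/water (50/50) plus 250 ppm Trem 014, at 200 ppm (≈500 g/ha) or 40 ppm where marked. Inoculated next day with B. cinerea spores, 48 h saturated atmosphere at 20 °C, then 3 days at 24 °C. Visual rating, 0–100% disease control relative to controls.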

The test system of a further data set is Rhizoctonia oryzae. Kind of data set: Test G: turf brown patch, preventive spray on creeping bent grass seedlings, visual disease rating. The conditions noted are these: Waitea circinata, in Agrostis stolonifera, 120 h, 200 ppm, 100 = 100% disease control, 0 = no control. The format is in vivo.
For data set [1], the system named is Erysiphe graminis f. sp. tritici. Briefly: Test A: wheat powdery mildew, preventive spray on wheat seedlings, visual disease rating. The format is in vivo. The conditions noted are these: Blumeria graminis, 192 h. The gist of the method: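 Acetone/water (50/50) suspension with 250 ppm surfactant sprayed to run-off on wheat seedlings (200 ppm ≈ 500 g/ha); inoculated next day with E. graminis spore dust. Incubated 8 days at 20° C, then visually rated 0–100% disease control versus untreated controls; tests at 200 ppm or 40 ppm.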

Data set [2] concerns Puccinia recondite f. sp. tritici. Briefly: Test B: wheat leaf rust, preventive spray on wheat seedlings, visual disease rating. The following applies: 192 h. The format is in vivo. The essentials:
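Wheat seedlings were sprayed to run-off with compound suspension, 200 ppm (≈500 g/ha) or 40 ppm where marked, containing surfactant in acetone/water. Inoculation with Puccinia recondita spores followed one day later, then 24 h in saturated humidity at 20° C and 7 days at 20° C. Disease control was rated visually, 0–100% versus controls.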

The subject of a further data set is Septoria tritici. Briefly: Test C: wheat leaf blotch, preventive spray on wheat seedlings, visual disease rating. The class given is in vivo. The conditions noted are these: Zymoseptoria tritici, 504 h. The gist of the method: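 Wheat seedlings sprayed to run-off with compound in acetone/water plus 250 ppm surfactant at 200 ppm (≈500 g/ha), or 40 ppm where marked; inoculated with Septoria tritici next day. Held saturated at 20 °C for 48 h, then 19 days at 20 °C; disease control rated visually 0–100 versus controls.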

The test system of another data set is Alternaria solani. Briefly: Test E: tomato early blight, preventive spray on tomato seedlings, visual disease rating. The format is in vivo. The following applies: Alternaria solani, 168 h. The gist of the method:
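Seedlings sprayed to run-off with compound in acetone/water plus 250 ppm Trem 014 (200 ppm ≈ 500 g/ha), inoculated with spores next day. Held 48 h saturated at 27 °C, then 5 days at 20 °C; visual rating 0–100% disease control relative to controls.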

The subject of a further data set is Septoria nodorum. Kind of data set: Test D: wheat glume blotch, preventive spray on wheat seedlings, visual disease rating. The class given is in vivo. The following applies: Parastagonospora nodorum, 216 h. The gist of the method: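 Compounds in 3% acetone, then 50/50 acetone–water with 250 ppm Trem 014, sprayed to run-off at 200 ppm (500 g/ha; some at 40 ppm) one day before spore inoculation. Held 48 h saturated at 20 °C, then 7 days at 20 °C; visual rating as % disease control vs untreated (0–100).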

The mark [3] stands for this setting: 200 ppm, 100 = 100% disease control, 0 = no control.
[4] abbreviates: 40 ppm (compound number followed by *).

For the molecule `COc1cc(OC)cc(-c2c(C(C)(C)O)cnc(C)c2-c2c(F)cc(F)cc2F)c1` [Compound 44, 4-(3,5-dimethoxyphenyl)-α,α,6-trimethyl-5-(2,4,6-trifluorophenyl)-3-pyridinemethanol], the melting point (in general, the temperature, or range, at which the solid turns liquid) lay within 166 to 167 °C. Also, the pest or weed control (as a rule, how far the test organism was held down) at 200 ppm in the data set with Botrytis cinerea (setting [3]) is 99%. For the same molecule, the pest or weed control at 200 ppm with Rhizoctonia oryzae came to 86%. In addition, in data set [1] (setting [3]), the pest or weed control at 200 ppm was 99%. This molecule also came in with a pest or weed control at 200 ppm in data set [2] (setting [3]) of 100%. The same molecule returned a pest or weed control at 200 ppm in the data set with Septoria tritici (setting [3]) of 100%. Also, the pest or weed control at 200 ppm with Alternaria solani (setting [3]) is 100%. The pest or weed control at 200 ppm in the data set on Septoria nodorum (setting [3]) was determined as 99%.

Consider `CCc1cnc(C)c(-c2c(F)cc(F)cc2F)c1-c1cc(OC)cc(OC)c1` [Compound 137, 4-(3,5-dimethoxyphenyl)-5-ethyl-2-methyl-3-(2,4,6-trifluorophenyl)pyridine], for which the melting point was 102 to 105 °C. The molecule further yielded a pest or weed control at 40 ppm with Botrytis cinerea (setting [4]) of 100%. In data set [1] (setting [4]), this molecule registered a pest or weed control at 40 ppm of 100%. In data set [2] (setting [4]), this molecule displayed a pest or weed control at 40 ppm of 100%. Also, the pest or weed control at 40 ppm with Septoria tritici (setting [4]) was determined as 100%. The molecule also registered a pest or weed control at 40 ppm with Alternaria solani (setting [4]) of 99%. This molecule also came in with a pest or weed control at 40 ppm in the data set on Septoria nodorum (setting [4]) of 97%.
